Reference: ChEMBL document CHEMBL1141968, “A lead compound for the development of ABA 8'-hydroxylase inhibitors” (Bioorg Med Chem Lett, 2005)
pIC50, pKi: −log10 of the molar value.

What was measured:
[1] = test system: Oryza sativa; assay: Effect on seed elongation in Rice (Oryza sativa L.Cv.Nipponbare); type: functional, organism-based
[2] = test system: Lactuca sativa; assay: Effect on seed germination in lettuce (Lactuca sativa L.Cv Grand Rapids); type: functional, organism-based
[3] = biological target: T1, Abscisic acid 8'-hydroxylase 3 (Arabidopsis thaliana, UniProt Q9FH76); assay: Inhibitory activity against recombinant CYP707A3 in Arabidopsis
T1 sequence (Q9FH76 whole entry): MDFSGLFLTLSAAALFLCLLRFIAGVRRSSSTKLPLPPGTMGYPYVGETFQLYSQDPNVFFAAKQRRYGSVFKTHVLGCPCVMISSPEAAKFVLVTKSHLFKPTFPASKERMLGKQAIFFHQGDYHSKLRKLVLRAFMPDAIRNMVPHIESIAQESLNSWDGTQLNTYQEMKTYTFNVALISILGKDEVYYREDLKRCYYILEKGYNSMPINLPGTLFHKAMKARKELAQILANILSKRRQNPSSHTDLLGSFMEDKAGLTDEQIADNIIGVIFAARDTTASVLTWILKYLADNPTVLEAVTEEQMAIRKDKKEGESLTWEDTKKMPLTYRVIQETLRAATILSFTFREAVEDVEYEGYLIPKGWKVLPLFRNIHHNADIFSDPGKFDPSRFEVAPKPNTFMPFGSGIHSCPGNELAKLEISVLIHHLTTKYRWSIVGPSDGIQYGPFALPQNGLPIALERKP

[4] = biological target: T1, Abscisic acid 8'-hydroxylase 3; assay: Inhibitory activity against recombinant CYP707A3 in Arabidopsis at 50 uM

pIC50 [3]	pKi [3]	inhibition at 50 µM [4]	SMILES	pIC50 [1]	pIC50 [2]
–	–	–	CC1=CC(=O)CC(C)(C)[C@@]1(O)/C=C/C(C)=C\C(=O)O [(+)-ABSCISIC ACID]	5.70	4.92
6.20	6.39	94%	C[C@H]1CCC[C@](C)(C(F)F)[C@@]1(O)/C=C/C=C\C(=O)O (racemic)	< 3.52	3.82
6.04	6.40	90.9%	C[C@H]1CCCC(C)(C)[C@@]1(O)/C=C/C=C\C(=O)O (racemic)	< 3.52	< 3.52
–	6.77	–	CC1=CC(=O)C[C@](C)(C(F)F)[C@@]1(O)/C=C/C(C)=C\C(=O)O	–	–
